In PubChem BioAssay (NCI):
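Cultured in 96-well plates, cells were exposed to test compound for 48 hours across five concentrations. Definition used: TGI = concentration required for complete inhibition of growth.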

How the values were obtained:
Test in all cases: NCI anticancer screen, dose series, 48 h
786-0 renal = system: 786-0 renal
A498 renal = system: A498 renal
A549 NSCLC = system: A549 NSCLC
ACHN renal = system: ACHN renal
BT-549 breast = system: BT-549 breast
CCRF-CEM leukemia = system: CCRF-CEM leukemia
COLO 205 colon = system: COLO 205 colon
DLD-1 colon = system: DLD-1 colon
DMS 273 small cell lung = system: DMS 273 small cell lung
DU-145 prostate = system: DU-145 prostate
EKVX NSCLC = system: EKVX NSCLC
HCC-2998 colon = system: HCC-2998 colon
HCT-116 colon = system: HCT-116 colon
HCT-15 colon = system: HCT-15 colon
HL-60(TB) leukemia = system: HL-60(TB) leukemia
HOP-18 NSCLC = system: HOP-18 NSCLC
HOP-62 NSCLC = system: HOP-62 NSCLC
HOP-92 NSCLC = system: HOP-92 NSCLC
HS 578T breast = system: HS 578T breast
HT29 colon = system: HT29 colon
IGROV1 ovarian = system: IGROV1 ovarian
K-562 leukemia = system: K-562 leukemia
KM12 colon = system: KM12 colon
KM20L2 colon = system: KM20L2 colon
LOX IMVI melanoma = system: LOX IMVI melanoma
LXFL 529 NSCLC = system: LXFL 529 NSCLC
M14 melanoma = system: M14 melanoma
M19-MEL melanoma = system: M19-MEL melanoma
MALME-3M melanoma = system: MALME-3M melanoma
MCF7 breast = system: MCF7 breast
MDA-MB-231 breast = system: MDA-MB-231 breast
MDA-N = system: MDA-N
MOLT-4 leukemia = system: MOLT-4 leukemia
NCI-H226 lung = system: NCI-H226 lung
NCI-H23 lung = system: NCI-H23 lung
NCI-H460 lung = system: NCI-H460 lung
NCI-H522 lung = system: NCI-H522 lung
OVCAR-3 ovarian = system: OVCAR-3 ovarian
OVCAR-4 ovarian = system: OVCAR-4 ovarian
OVCAR-5 ovarian = system: OVCAR-5 ovarian
OVCAR-8 ovarian = system: OVCAR-8 ovarian
PC-3 prostate = system: PC-3 prostate
RPMI-8226 leukemia = system: RPMI-8226 leukemia
RXF 393 renal = system: RXF 393 renal
SF-268 CNS = system: SF-268 CNS
SF-295 CNS = system: SF-295 CNS
SF-539 CNS = system: SF-539 CNS
SK-MEL-2 melanoma = system: SK-MEL-2 melanoma
SK-MEL-28 melanoma = system: SK-MEL-28 melanoma
SK-MEL-5 melanoma = system: SK-MEL-5 melanoma
SK-OV-3 ovarian = system: SK-OV-3 ovarian
SN12C renal = system: SN12C renal
SNB-19 CNS = system: SNB-19 CNS
SNB-75 CNS = system: SNB-75 CNS
SNB-78 CNS = system: SNB-78 CNS
SR leukemia = system: SR leukemia
SW-620 colon = system: SW-620 colon
T-47D breast = system: T-47D breast
TK-10 renal = system: TK-10 renal
U251 CNS = system: U251 CNS
UACC-257 melanoma = system: UACC-257 melanoma
UACC-62 melanoma = system: UACC-62 melanoma
UO-31 renal = system: UO-31 renal

## COc1ccc(OC(=O)N2C/C(=C\c3ccccc3)C(=O)/C(=C/c3ccccc3)C2)cc1
786-0 renal
  TGI: 7.96 µM
A498 renal
  TGI: 10.6 µM
A549 NSCLC
  TGI: 38.9 µM
ACHN renal
  TGI: 14.4 µM
BT-549 breast
  TGI: 4.67 µM
CCRF-CEM leukemia
  TGI: 6.73 µM
COLO 205 colon
  TGI: 15.7 µM
DLD-1 colon
  TGI: 5.29 µM
DMS 273 small cell lung
  TGI: 6.28 µM
DU-145 prostate
  TGI: 65.1 µM
EKVX NSCLC
  TGI: 58.3 µM
HCC-2998 colon
  TGI: 8.76 µM
HCT-116 colon
  TGI: 1.19 µM
HCT-15 colon
  TGI: 9.23 µM
HL-60(TB) leukemia
  TGI: 14 µM
HOP-18 NSCLC
  TGI: 49.5 µM
HOP-62 NSCLC
  TGI: 21.4 µM
HOP-92 NSCLC
  TGI: 40.1 µM
HS 578T breast
  TGI: 7.33 µM
HT29 colon
  TGI: 3.73 µM
IGROV1 ovarian
  TGI: 16.3 µM
K-562 leukemia
  TGI: 7.66 µM
KM12 colon
  TGI: 4.18 µM
KM20L2 colon
  TGI: 17 µM
LOX IMVI melanoma
  TGI: 3.22 µM
LXFL 529 NSCLC
  TGI: 6.92 µM
M14 melanoma
  TGI: 7.97 µM
M19-MEL melanoma
  TGI: 2.9 µM
MALME-3M melanoma
  TGI: 27.8 µM
MCF7 breast
  TGI: 4.77 µM
MDA-MB-231 breast
  TGI: 7.83 µM
MDA-N
  TGI: 3.47 µM
MOLT-4 leukemia
  TGI: 8.06 µM
NCI-H226 lung
  TGI: 30.3 µM
NCI-H23 lung
  TGI: 17.1 µM
NCI-H460 lung
  TGI: 13.7 µM
NCI-H522 lung
  TGI: 5.23 µM
OVCAR-3 ovarian
  TGI: 13.1 µM
OVCAR-4 ovarian
  TGI: 23.5 µM
OVCAR-5 ovarian
  TGI: 27.1 µM
OVCAR-8 ovarian
  TGI: 7.57 µM
PC-3 prostate
  TGI: 11.2 µM
RPMI-8226 leukemia
  TGI: 0.172 µM
RXF 393 renal
  TGI: 8.71 µM
SF-268 CNS
  TGI: 15.2 µM
SF-295 CNS
  TGI: 10.1 µM
SF-539 CNS
  TGI: 22.5 µM
SK-MEL-2 melanoma
  TGI: 45.6 µM
SK-MEL-28 melanoma
  TGI: 4.97 µM
SK-MEL-5 melanoma
  TGI: 8.84 µM
SK-OV-3 ovarian
  TGI: 24.9 µM
SN12C renal
  TGI: 5.83 µM
SNB-19 CNS
  TGI: 16.6 µM
SNB-75 CNS
  TGI: 32.6 µM
SNB-78 CNS
  TGI: 27.3 µM
SR leukemia
  TGI: 2.64 µM
SW-620 colon
  TGI: 2.89 µM
T-47D breast
  TGI: 48.1 µM
TK-10 renal
  TGI: 44 µM
U251 CNS
  TGI: 8.87 µM
UACC-257 melanoma
  TGI: 7.71 µM
UACC-62 melanoma
  TGI: 5.35 µM
UO-31 renal
  TGI: 23.6 µM
